# Measurements from patent publication EP0472573B1, “HERBICIDE RESISTANT MAIZE” (ZENECA LIMITED, priority 1989, dated 1990).
# Experiments:
# [1] = test system: Mutant 3 plants; experiment: Cross-resistance testing (glasshouse dose response), Mutant 3; assay type: in vivo, Zea mays; details: pre-emergence spray, assessed after four weeks growth
# From the text: (§1) The seeds used in this screen were populations of mixed tolerant and sensitive seed, segregating 1:1, derived from each of the heterogygous, tolerant mutants crossed with homozygous, sensitive UE95. All of the tolerant progeny are heterozygous for tolerance. Each of the mutants identified above were used except mutant 4. The controls were seed of self-pollinated UE95 which was pollinated in the same year as the tolerant lines.
# (§2) One litre of compost was placed in each seed tray of dimensions 19cm x 11cm x 5cm deep and firmed down flat. Two furrows 1 cm deep were drawn in the surface of the compost in each tray and six seeds were sown in each furrow (total twelve seeds per tray). Some trays were sown with 24 seeds, in which case three furrows were made and 8 seeds sown per furrow.
# (§3) In each test each tray contained either the seed of one mutant or of the UE95 control for each herbicide application rate and for the untreated control.
# (§4) Five different types of ALS-inhibitor herbicides were tested on the mutants plus imazethapyr (PURSUIT) as a comparison. Four rates of each were applied; approximately 0.1x, 0.5x, 1x and 4x the estimated field rates for each herbicide. The rates are the same for mutant 3 to 10 but higher rates for chlorimuron (CLASSIC) and lower rates for chlorsulfuron (GLEAN) were applied to mutants 1 and 2.
# (§5) The rates of application used in the screening tests were as follows: chlorimuron (CLASSIC) 4,20,40,160 g/Ha (mutants 1 and 2); and, 8,40,80,320 g/Ha (mutants 3 to 10); chlorsulfuron (GLEAN) 5,25,50,200 g/Ha (mutants 1 and 2); and, 1,5,10,40 g/Ha (mutants 3 to 10); imazaquin (SCEPTER) 30,150,300,1200 g/Ha; triazolopyrimidine 5,25,50,200 g/Ha; phenoxypyrimidine 10,50,100,400 g/Ha; and, imazethapyr (PURSUIT) 30,150,300,1200 g/Ha The triazolopyrimidine and phenoxypyrimidine were formulated in an adjuvant wetting agent known as JF5969 and diluted with water to make a final concentration of 10% JF5969. The remaining compounds were diluted with water only.
# (§6) The spray jet and parameters were as decribed above under "SCREENING". After spraying, the seeds were covered with 0.5 litre of compost and firmed down flat (2.5cm covering) and grown under the conditions described under "SCREENING" above.
# (§7) Visual assessments were made of the plants after four weeks growth. Each plant was scored on a scale of zero to 5 and the height measured from soil surface to the tallest leaf tip. The scoring scale was as follows: 0 - 0 to 10% damage (little or no herbicidal effect) 1 - 11 to 25% damage 2 - 26 to 50% damage 3 - 51 to […] 4 - 81 to 95% damage 5 - 96 to 100% damage (complete death of the plant) In carrying out these assessments, plants which were obviously of the sensitive phenotype were ignored (approximately 50% of the plants). […]
# [2] = test system: Mutant 10 plants; experiment: Cross-resistance testing (glasshouse dose response), Mutant 10; assay type: in vivo, Zea mays; details: pre-emergence spray, assessed after four weeks growth
# From the text: as §1, §2, §3, §4, §5, §6, §7
# [3] = molecular target: ALS enzyme extracted from Mutant 1 (heterozygous); experiment: ALS enzyme assay, heterozygous Mutant 1; assay type: biochemical, Zea mays; details: for IC50: ALS of heterozygous Mutant 1, read-out: ID50% (the source's name); for resistance group, Enzyme Assay: Mutant 1, groups Strong, Intermediate, Weak, Zero; for Fold Increase: fold increase in resistance vs wild type, heterozygous Mutant 1, 30 min
# Procedure: (§8) Seeds of generation M₁BC₁ M₁BC₂ of the nine mutants were sprayed pre-emergence with the herbicide imazethapyr (PURSUIT) (Trade Mark) at a rate of 250 g/ha and grown in a growth chamber (16 hour day, 27°C; 8 hour night, 17°C). Plants were harvested after 11 days.
# (§9) Four grams of leaf material were harvested from just above the first leaf axis and ground in a mortar and pestle in 20ml of a solution containing 40mM Tricine (Trade Mark), 10mM EDTA, 5mM pyruvate, 80 »M flavin adenine dinucleotide (FAD), 1mM dithiothreitol (DTT), pH 8, plus 0.8g Polyclar AT. The homogenate was pressed through four layers of muslin and centrifuged at 30,000g for 20 minutes.
# (§10) The supernatant was brought to 65% saturation with ammonium sulphate, left to precipitate for 30 minutes and then centrifuged at 30.000g for 20 minutes. The pellet was resuspended in 2.5ml of 40mM Tricine, 10mM EDTA, 5mM pyruvate, 80»M FAD, 25% (v/v) glycerol, 1mM DTT, pH 8, and desalted into 3.5ml of 40mM Tricine, 10mM EDTA, 25% (v/v) glycerol, 1mM DTT, pH 8.
# (§11) One hundred microlitres of the enzyme extract was used for each assay. Final reagent concentrations were: 120mM Tricine, 50mM pyruvate, 10mM MgCl₂, […], 93»M thiamine pyrophosphate (TPP), pH 8, in the presence or absence of a herbicide of interest, in a volume of 750 »l. Incubations were carried out at 37°C for 30 minutes. Reactions were stopped with 250»l of 1.84M sulphuric acid, and decarboxylation of the acetolactate carried out at 37°C for 75 minutes, or at 60°C for 30 minutes. Assay blanks had sulphuric acid added prior to the enzyme extract. To the samples and blanks 650»l of α-naphthol in 2.73M NaOH/0.16%(w/v) creatine were added followed by incubation at 37°C for 30 minutes. After centrifugation at 30,000g the optical density of the supernatant was read at 540nm.
# (§12) The assay procedure described was carried out on ALS enzyme extracted from each of the nine mutants for the following herbicides: imazethapyr (PURSUIT) imazapyr (ARSENAL) imazaquin (SCEPTER) chlorsulfuron (GLEAN) chlorimuron (CLASSIC) […] (HARMONY) The enzyme activity graphs are given as Figures 3 to 8. In addition, homozygous lines of mutants 1 and 2 which were selected from generation M₁BC₁S₂, were also tested against the same group of herbicides and against representatives of the triazolopyrimidines and phenoxypyrimidines. The chemical structures of these herbicides are shown in Figure 2 of the accompanying drawings.
# (§13) From the enzyme assay data it is possible to derive, as a measure of the degree of inhibition the factor ID50% for each mutant and for each herbicide. This factor is indicative of the herbicide concentration which gives 50% inhibition of the ALS activity in comparison with the wild-type control. It is also possible to derive the fold increase in resistance.
# [4] = molecular target: ALS extracted from leaves of MUTANT 2 (homozygous); experiment: ALS enzyme assay, homozygous Mutant 2; assay type: biochemical, Zea mays; details: for IC50: ALS of homozygous Mutant 2, read-out: ID50% Mutant; for Fold Increase: fold increase in resistance vs wild type, homozygous Mutant 2, 30 min
# Procedure: as §9, §10, §11, §12, §13
# [5] = test system: Mutant 1 plants; experiment: Cross-resistance testing (glasshouse dose response), Mutant 1; assay type: in vivo, Zea mays; details: pre-emergence spray, assessed after four weeks growth
# From the text: as §1, §2, §3, §4, §5, §6, §7
# [6] = test system: Mutant 2 plants; experiment: Cross-resistance testing (glasshouse dose response), Mutant 2; assay type: in vivo, Zea mays; details: pre-emergence spray, assessed after four weeks growth
# From the text: as §1, §2, §3, §4, §5, §6, §7
# [7] = test system: Mutant 8 plants; experiment: Cross-resistance testing (glasshouse dose response), Mutant 8; assay type: in vivo, Zea mays; details: pre-emergence spray, assessed after four weeks growth
# From the text: as §1, §2, §3, §4, §5, §6, §7
# [8] = molecular target: ALS enzyme extracted from Mutant 3 (heterozygous); experiment: ALS enzyme assay, heterozygous Mutant 3; assay type: biochemical, Zea mays; details: for IC50: ALS of heterozygous Mutant 3, read-out: ID50% (the source's name); for resistance group, Enzyme Assay: Mutant 3, groups Strong, Intermediate, Weak, Zero; for Fold Increase: fold increase in resistance vs wild type, heterozygous Mutant 3, 30 min
# Procedure: as §8, §9, §10, §11, §12, §13
Compound,"resistance group, Dose Response [1]","resistance group, Dose Response [2]",IC50 [3],"resistance group, Enzyme Assay [3]",Fold Increase [3],IC50 [4],Fold Increase [4],"resistance group, Dose Response [5]","resistance group, Dose Response [6]","resistance group, Dose Response [7]",IC50 [8],"resistance group, Enzyme Assay [8]",Fold Increase [8]
"COc1cc(Cl)nc(NC(=O)NS(=O)(=O)c2ccccc2C(=O)O)n1 [Chlorimuron, chlorimuron]",Weak,Weak,0.005 µM,Weak,1,0.02 µM,5.4,Zero,Zero,Zero,0.015 µM,Weak,4
"COc1nc(C)nc(NC(=O)NS(=O)(=O)c2ccccc2Cl)n1 [Chlorsulfuron, chlorsulfuron]",Intermediate,Weak and Zero,0.065 µM,Weak,4,0.04 µM,2.2,Zero,Zero,Zero,0.035 µM,Weak,2
"CC(C)C1(C)N=C(c2nc3ccccc3cc2C(=O)O)NC1=O (stereo not shown) [Imazaquin, imazaquin]",Weak,Weak,150 µM,Strong,250,40 µM,66,Strong,Strong,Strong,1.5 µM,Weak,2
"CCc1cnc(C2=NC(=O)C(C)(C(C)C)N2)c(C(=O)O)c1 (stereo not shown) [Imazethapyr, 5-ethyl-2-(5-iso-propyl-5-methyl-4-oxo-2-imidazolin-2-yl) nicotinic acid]",Weak,Intermediate,> 1000 µM,Strong,>660,400 µM,267,Strong,Intermediate,Strong,2.5 µM,Weak,2
